Test results from patent publication US20240158457A1, “INTERLEUKIN-18 RECEPTOR BINDING POLYPEPTIDES AND USES THEREOF” (Medikine, Inc., priority 2022, published 2024).
Where a SMILES comes first, the peptide text is derived from it. Bridges are numbered along the chain shown (N, C = ends).

Experiments:
[1] = biological target: T1, IL-18 Binding Protein (IL-18BP) (Homo sapiens, UniProt O95998); experiment: Direct binding ELISA for IL-18BP; details: C-terminally biotinylated forms of peptides; at up to 100 nM IL-18BP
T1 construct: purchased ACROBiosystems (Acro); R&D Systems ILP-H5253; 119-BP
T1 sequence (O95998 31-194): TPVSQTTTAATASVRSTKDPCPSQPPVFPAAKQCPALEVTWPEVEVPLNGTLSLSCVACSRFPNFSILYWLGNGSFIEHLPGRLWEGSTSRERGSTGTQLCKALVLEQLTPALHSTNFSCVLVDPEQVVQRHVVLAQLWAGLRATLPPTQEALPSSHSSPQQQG
Description: Binding of synthetic monomer peptides to IL-18 Binding Protein (IL-18BP) was measured using a direct binding ELISA. Briefly, 96-well ELISA plates were coated with NeutrAvidin (NA) at 5 μg per well in PBS, washed, then blocked with PBS containing 1% BSA. Wells were washed and representative peptides, synthesized with a C-terminal biotin were diluted to 300 nM in assay buffer and added to the NA coated wells. Wells were washed and serial dilutions starting at 100 nM of IL-18R subunits, IL-18BP from either of two sources (Acro #ILP-H5253 and R&D #119-BP), and control IgG Fc fusions) were added to the wells and incubated for 1 hr at 4° C. Then plates were washed and goat anti-human IgG Fc-HRP (Southern Biotech #2048-05) detection antibody was added for 1 hr. Wells were developed with TMB for 5-15 min and the enzyme reaction was stopped with a H2SO4 solution.

[2] = biological target: T2, IL-18R (Homo sapiens, UniProt O95256+Q13478); experiment: HEK-BLUE IL18R reporter assay for IL-18BP/IL-18 interaction (agonist activity with and without IL-18BP); assay type: cell-based; details: IL-18BP up to 100 nM; 30 nM dimer 10; FIG. 22B
T2 construct: host or cells: HEK293 (HEK-BLUE IL-18 reporter cell line)
T2 sequence (Q13478 19-541): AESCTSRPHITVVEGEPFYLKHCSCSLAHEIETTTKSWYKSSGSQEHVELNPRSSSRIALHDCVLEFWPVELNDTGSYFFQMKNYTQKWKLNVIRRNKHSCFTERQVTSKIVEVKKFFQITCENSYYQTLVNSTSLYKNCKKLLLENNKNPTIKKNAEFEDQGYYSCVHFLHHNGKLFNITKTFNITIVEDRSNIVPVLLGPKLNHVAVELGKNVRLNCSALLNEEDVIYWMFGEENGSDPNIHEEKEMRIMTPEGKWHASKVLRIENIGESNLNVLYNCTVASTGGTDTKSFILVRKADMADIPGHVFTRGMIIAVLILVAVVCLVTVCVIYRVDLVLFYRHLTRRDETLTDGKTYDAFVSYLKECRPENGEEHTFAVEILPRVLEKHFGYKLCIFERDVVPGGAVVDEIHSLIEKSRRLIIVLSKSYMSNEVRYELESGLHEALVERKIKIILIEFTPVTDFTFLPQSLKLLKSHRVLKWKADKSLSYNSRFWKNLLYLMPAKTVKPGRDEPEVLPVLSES
T2 sequence (O95256 20-599): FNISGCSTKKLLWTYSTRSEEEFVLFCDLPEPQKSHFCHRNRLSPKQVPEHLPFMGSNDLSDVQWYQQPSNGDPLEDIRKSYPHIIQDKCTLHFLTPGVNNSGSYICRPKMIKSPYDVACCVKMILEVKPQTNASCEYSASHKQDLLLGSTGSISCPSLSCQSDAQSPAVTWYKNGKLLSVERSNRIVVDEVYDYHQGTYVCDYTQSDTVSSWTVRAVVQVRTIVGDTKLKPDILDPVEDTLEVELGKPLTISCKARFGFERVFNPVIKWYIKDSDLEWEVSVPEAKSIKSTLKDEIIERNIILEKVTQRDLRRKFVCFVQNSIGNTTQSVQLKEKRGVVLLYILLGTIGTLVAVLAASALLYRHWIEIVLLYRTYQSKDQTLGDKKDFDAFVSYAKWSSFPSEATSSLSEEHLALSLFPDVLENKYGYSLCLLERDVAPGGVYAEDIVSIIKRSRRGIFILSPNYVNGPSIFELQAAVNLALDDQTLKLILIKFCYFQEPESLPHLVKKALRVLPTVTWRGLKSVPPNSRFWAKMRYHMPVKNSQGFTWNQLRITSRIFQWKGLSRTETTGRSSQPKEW
Description: IL-18 is negatively regulated by a decoy receptor called IL-18 binding protein (IL-18BP), a secreted antagonist that binds IL-18 with extremely high affinity. HEK-BLUE™ IL-18 reporter cell line (InvivoGen #hkb-hmil 18, California, USA) was used to determine the impact of heterodimer peptides composed of IL-18Ra and IL-18Rb binding peptides on the IL-18BP/IL-18 interaction. The IL-18 Reporter assay, as described in detail in Example 2, was used to investigate this interaction with the following modifications.
A serial dilution (7-point, 10-fold) of IL-18BP Fc fusion (Acro #ILP-H5253) starting at 2 μM (20-fold final concentration) was prepared in test medium in a v-bottom polypropylene 96-well plate. Human recombinant IL-18 (R&D Systems #9124-IL-050/CF) and a representative peptide agonist were prepared at 30 pM and 600 nM respectively (both at 20-fold final concentration and at approximately their respective EC70s). […] Absorbance signal at 630 nm was then measured on a plate reader. Half maximal inhibition concentration (IC50) was calculated based on a variable slope and four parameter analysis using GraphPad Prism software. When no inhibition was measured the data points were connected without a curve fit. Absorbance readings were converted to percent total of signal span, for IL-18 and peptide agonist respectively, and graphed as NF-κB reporter activity (% max).

| binding to IL-18BP [1] | inhibition of agonist activity by IL-18BP [2] | Compound |
| --- | --- | --- |
| did not exhibit binding | – | CC[C@H](C)[C@@H]1NC(=O)[C@H](CCC(=O)O)NC(=O)[C@H](CO)NC(=O)[C@H](CC(C)C)NC(=O)[C@H](Cc2c[nH]cn2)NC(=O)[C@H](CC(=O)O)NC(=O)[C@H](CO)NC(=O)[C@H](CC(C)C)NC(=O)[C@H](Cc2c[nH]c3ccccc23)NC(=O)[C@H](CC(N)=O)NC(=O)[C@@H]2CCCN2C(=O)[C@@H](NC(=O)CNC(=O)CN)CSSC[C@@H](C(=O)NCC(=O)NCC(=O)O)NC(=O)[C@H](Cc2c[nH]c3ccccc23)NC1=O [Dimer 5C09, GGCPNWLSDHLSEIWCGG] (H-GGCPNWLSDHLSEIWCGG-OH; disulfide 3-16; N-terminus and C-terminus assumed) |
| – | does not inhibit | CC[C@H](C)[C@H](NC(=O)[C@@H]1CSSC[C@H](NC(=O)[C@H](CCC(=O)O)NC(=O)[C@H](Cc2ccccc2)NC(=O)[C@H](Cc2ccccc2)NC(=O)CNC(=O)CNC(=O)[C@H](CO)NC(=O)CNC(=O)CCc2cn(CC[C@H](NC(=O)[C@H](CC(C)C)NC(=O)[C@@H]3CSSC[C@H](NC(=O)[C@H](CC(C)C)NC(=O)CNC(=O)CN)C(=O)N[C@@H](Cc4c[nH]c5ccccc45)C(=O)N[C@@H](Cc4ccc(O)cc4)C(=O)N[C@@H](Cc4ccccc4)C(=O)NCC(=O)NCC(=O)N[C@@H]([C@@H](C)O)C(=O)N[C@@H](C(C)C)C(=O)N[C@@H](CCCNC(=N)N)C(=O)NCC(=O)N4CCC[C@H]4C(=O)N3)C(N)=O)nn2)C(=O)N[C@@H](Cc2ccccc2)C(=O)N[C@@H](Cc2ccc(O)cc2)C(=O)N[C@@H](CO)C(=O)N2CCC[C@H]2C(=O)NCC(=O)N[C@@H](Cc2c[nH]cn2)C(=O)N[C@@H](CCC(=O)O)C(=O)N[C@@H](Cc2c[nH]c3ccccc23)C(=O)N1)C(=O)N1CCC[C@H]1C(=O)N[C@@H](CO)C(=O)NCC(=O)NCC(N)=O [Dimer 10] |
| did not exhibit binding | – | CC(C)C[C@H](NC(=O)CNC(=O)CN)C(=O)N[C@H]1CSSC[C@@H](C(=O)N[C@@H](CC(C)C)C(=O)NCC(=O)NCC(=O)O)NC(=O)[C@@H]2CCCN2C(=O)CNC(=O)[C@H](CCCNC(=N)N)NC(=O)[C@H](C(C)C)NC(=O)[C@H]([C@@H](C)O)NC(=O)CNC(=O)CNC(=O)[C@H](Cc2ccccc2)NC(=O)[C@H](Cc2ccc(O)cc2)NC(=O)[C@H](Cc2c[nH]c3ccccc23)NC1=O [Family 2 synthetic construct, GGLCWYFGGTVRGPCLGG] (H-GGLCWYFGGTVRGPCLGG-OH; disulfide 4-15; N-terminus and C-terminus assumed) |
| did not exhibit binding | – | GGELCWRPFSFVDCEEGG [alpha Synthetic Fla Consensus Construct] |
